Test results taken from patent US7858044B2, “Multi-well plate providing a high-density storage and assay platform” (Nexus Biosystems, Inc., priority 2003, dated 2010).

Molecular target: recombinant human CYP 3A4 (Homo sapiens, UniProt P08684)
Assay: CYP 3A4 isozyme inhibition screen with fluorogenic substrate BOMR in 3456-well plate
Settings: concentration series

recombinant human CYP 3A4, sequence (P08684 whole entry): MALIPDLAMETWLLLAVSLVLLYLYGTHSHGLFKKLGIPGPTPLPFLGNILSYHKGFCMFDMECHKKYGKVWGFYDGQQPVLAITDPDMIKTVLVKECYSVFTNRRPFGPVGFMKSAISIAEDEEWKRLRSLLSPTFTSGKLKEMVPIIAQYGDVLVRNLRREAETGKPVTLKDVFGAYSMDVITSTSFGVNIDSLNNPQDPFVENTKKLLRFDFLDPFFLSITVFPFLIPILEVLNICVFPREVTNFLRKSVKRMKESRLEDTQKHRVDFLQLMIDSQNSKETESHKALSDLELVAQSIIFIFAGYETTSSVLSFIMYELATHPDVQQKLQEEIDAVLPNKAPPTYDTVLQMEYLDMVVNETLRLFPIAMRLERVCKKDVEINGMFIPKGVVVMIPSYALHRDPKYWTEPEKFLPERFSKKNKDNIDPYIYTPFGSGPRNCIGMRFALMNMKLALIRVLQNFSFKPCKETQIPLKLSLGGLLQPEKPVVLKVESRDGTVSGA

`C[C@]12CC[C@H]3[C@@H](CCC4=CC(=O)CC[C@@]43C)[C@@H]1CC[C@@H]2O` [testosterone] was tested, and the “Potentiation of CYP 3A4 isozyme” value was “Potentiation”.
